# Test system: bleomycin-induced pulmonary fibrosis model mice
# Experiment: Effect on right lung wet weight, dry weight and hydroxyproline in bleomycin-induced pulmonary fibrosis model mice
# Format: in vivo, Mouse Crl:CD1(ICR)
# Conditions: Day 28, mean ± S.E.M., N=9; for Dry weight of right lung: Control 0.0348 ± 0.0017, Normal 0.0236 ± 0.0007; for Wet weight of right lung: Control 0.1735 ± 0.0087, Normal 0.1224 ± 0.0029; for Hydroxyproline (right lung): Control 354.9 ± 15.1, Normal 266.9 ± 6.4
# Method: • Japanese Pharmacopoeia: Physiological saline solution (saline solution) • (2) Test system • Mouse Crl:CD1(ICR), 45 mice, male, purchased from Charles River Japan K.K. (11 weeks old at time of purchase)
# The test substance was divided into 6 mg×28 doses prior to the day of administration. Dose solution was prepared on the day of administration. To one bottle of the previously aliquoted test substance (6 mg), 6 mL of saline solution was added and mixed by inverting. The samples were heated (approximately 40° C.) and sonicated until dissolution was visually confirmed (1 mg/mL solution). The 1 mg/mL solution was divided into 0.5 mL portions, and 4.5 mL of saline solution was added. Dissolution was confirmed by inverting and mixing (0.1 mg/mL solution).
# The route of administration was intraperitoneal administration.
# It was administered once per day for 28 days. Administration at the time of preparation of the pulmonary fibrosis model (Day 0 to Day 4) was before administration of bleomycin.
# 10 mL/kg was administered intraperitoneally using a 1 mL syringe and needle (Terumo Corporation).
# The bleomycin solution was administered into the tail vein of mice at a dose volume of 5 mL/kg (bleomycin dose: 15 mg/kg) once a day for 5 days. The volume of administered liquid was calculated based on the latest body weight and calculated to the nearest 0.01 mL (rounded to the third decimal place). The normal group was administered physiological saline at a volume of 5 mL/kg.
# After lethal exsanguination, the right bronchial bifurcation was ligated, and only the right lung was removed. The wet weight of the excised right lung was measured. After weighing, the right lung was minced. After that, the right lung was dried in a dry heat sterilizer set at 72° C. for about 72 hours, and the dry weight of the right lung was measured. After measuring the dry weight, it was stored in an ultra-low temperature freezer (permissible range: −90 to −65° C.) until the amount of hydroxyproline was measured. The left lung was ligated and fixed after a cannula was inserted into the trachea, and a 10% phosphate-buffered formalin solution was injected through the cannula at a pressure of 15 cm H2O to expand and fix the lung tissue. Lung sampling was performed on animals from which blood collection was performed. A fixed left lung is undergoing histopathological examination.
# The hydroxyproline content of the right lung cryopreserved in section (6-5) was measured. 2 mL of HCl for hydrolysis was added to the dried right lung and the sample was hydrolyzed in an autoclave at about 121° C. for 30 minutes. After that, it was neutralized with 2.5 N NaOH (pH about 6 to 7: pH test paper was used for confirmation). By measuring the tare weight in advance and measuring the weight after neutralization, the amount (g) of the sample after neutralization was calculated. The sample after neutralization was appropriately diluted with water for injection, and 2 mL of the solution was used as a sample for measurement of HYP content.
# 1 mL of chloramine T reagent was added to 2 mL of the HYP standard solution and the mixture was left stand at room temperature for 20 minutes. Then, 1 mL of perchloric acid reagent was added and the mixture was left stand at room temperature for 5 minutes. After adding 1 mL of p-dimethylaminobenzaldehyde reagent and heating at 60° C. for 20 minutes, the absorbance at 557 nm of the supernatant which was obtained by filtration using a filter was measured with a spectrophotometer to create a calibration curve.
# For 2 mL of each sample for measurement of HYP content, the absorbance was measured in the same manner as described in Section 3.6.6.2, and the HYP content (μg/mL) was calculated from the measured values based on the calibration curve obtained in Section 3.6.6.2. Each sample for measurement of HYP content was diluted 20-fold and was measured. Single measurement was used. […]
# [1] = 2ccPA 1 mg/kg intraperitoneal once per day for 28 days
# [2] = 2ccPA 10 mg/kg intraperitoneal once per day for 28 days
substance,measurement,setting,value
2-Carbacyclic phosphatidic acid [2ccPA],Dry weight of right lung,[1],0.0327 ± 0.0021 g
same,Wet weight of right lung,[1],0.1599 ± 0.0113 g
same,Hydroxyproline (right lung),[1],331.2 ± 20.0 μg/lung
same,Dry weight of right lung,[2],0.0303 ± 0.0011 g
same,Wet weight of right lung,[2],0.1458 ± 0.0044 g
same,Hydroxyproline (right lung),[2],288.8 ± 11.1 μg/lung
